From ChEMBL document CHEMBL3751730, “Synthesis and in vitro antitumor evaluation of dihydroartemisinin-cinnamic acid ester derivatives” (Eur J Med Chem, 2016)

Columns and labels:
[1] = Antiproliferative activity against human SGC7901 cells after 72 hrs by MTT assay; assay type: functional, cell-based; details: SGC-7901, 72 h
[2] = system: A549; test: Antiproliferative activity against human A549 cells after 72 hrs by MTT assay; assay type: functional, cell-based; details: A549, 72 h
[3] = Antiproliferative activity against human PC3 cells after 72 hrs by MTT assay; assay type: functional, cell-based; details: PC-3, 72 h
[4] = Antiproliferative activity against human MDA-MB-435S cells after 72 hrs by MTT assay; assay type: functional, cell-based
[5] = Drug degradation at 2 to 4 mg at 210 to 220 degC by thermogravimetric analysis in the presence of nitrogen gas; assay type: physicochemical; details: for degraded: in vivo, read-out: Drug degradation
[6] = Chemical stability of the compound at 2 to 4 mg at 25 to 300 degC by differential scanning […] analysis in the presence of nitrogen gas; assay type: physicochemical
[7] = Cytotoxicity against human L02 cells after 72 hrs by MTT assay; assay type: cell-based; details: L02, 72 h
[8] = Selectivity index, ratio of IC50 for human L02 cells to IC50 for human A549 cells; assay type: functional

SMILES	IC50 [1] [µM]	IC50 [2] [µM]	IC50 [3] [µM]	IC50 [4] [µM]	degraded [5] [%]	Stability [6]	IC50 [7] [µM]	Ratio IC50 [8]	Stability [5]
C[C@@H]1[C@H](O)C[C@H]2[C@@H](C)[C@H](OC(=O)/C=C/c3ccc(Cl)cc3)O[C@@H]3O[C@@]4(C)CC[C@@H]1[C@]32OO4	> 100	> 100	> 100	98.6					
C[C@@H]1[C@H](O)C[C@H]2[C@@H](C)[C@H](OC(=O)/C=C/c3ccccc3)O[C@@H]3O[C@@]4(C)CC[C@@H]1[C@]32OO4	> 100	> 100	> 100	76.3					
C[C@@H]1[C@H](OC(=O)/C=C/c2ccccc2Cl)C[C@H]2[C@@H](C)[C@H](OC(=O)/C=C/c3ccccc3Cl)O[C@@H]3O[C@@]4(C)CC[C@@H]1[C@]32OO4	> 100	96.2	76.2	> 100					
C[C@@H]1[C@H](OC(=O)/C=C/c2cccc(Cl)c2)C[C@H]2[C@@H](C)[C@H](OC(=O)/C=C/c3cccc(Cl)c3)O[C@@H]3O[C@@]4(C)CC[C@@H]1[C@]32OO4	12	2.72	11.1	22.4					
C[C@@H]1[C@H](OC(=O)/C=C/c2ccc(C(F)(F)F)cc2)C[C@H]2[C@@H](C)[C@H](OC(=O)/C=C/c3ccc(C(F)(F)F)cc3)O[C@@H]3O[C@@]4(C)CC[C@@H]1[C@]32OO4	39.4	5.08	43.5	67.7					
C[C@@H]1[C@H](O)C[C@H]2[C@@H](C)[C@H](OC(=O)/C=C/c3ccc(F)cc3)O[C@@H]3O[C@@]4(C)CC[C@@H]1[C@]32OO4	> 100	> 100	> 100	> 100					
COc1cccc(/C=C/C(=O)O[C@@H]2O[C@@H]3O[C@@]4(C)CC[C@H]5[C@H](C)[C@H](O)C[C@@H]([C@H]2C)[C@@]35OO4)c1	> 100	> 100	> 100	> 100					
C[C@@H]1[C@H](OC(=O)/C=C/c2ccccc2F)C[C@H]2[C@@H](C)[C@H](OC(=O)/C=C/c3ccccc3F)O[C@@H]3O[C@@]4(C)CC[C@@H]1[C@]32OO4	> 100	4.66	12.5	18.8					
C[C@@H]1[C@H](O)C[C@H]2[C@@H](C)[C@H](OC(=O)/C=C/c3ccc(C(F)(F)F)cc3)O[C@@H]3O[C@@]4(C)CC[C@@H]1[C@]32OO4	85.7	> 100	> 100	> 100					
C[C@@H]1[C@H](OC(=O)/C=C/c2ccc(F)cc2)C[C@H]2[C@@H](C)[C@H](OC(=O)/C=C/c3ccc(F)cc3)O[C@@H]3O[C@@]4(C)CC[C@@H]1[C@]32OO4	> 100	> 100	> 100	> 100					
COc1ccc(/C=C/C(=O)O[C@@H]2O[C@@H]3O[C@@]4(C)CC[C@H]5[C@H](C)[C@H](O)C[C@@H]([C@H]2C)[C@@]35OO4)c(OC)c1OC	> 100	40.1	> 100	69.9					
COc1ccc(/C=C/C(=O)O[C@@H]2O[C@@H]3O[C@@]4(C)CC[C@H]5[C@H](C)[C@H](OC(=O)/C=C/c6ccc(OC)cc6)C[C@@H]([C@H]2C)[C@@]35OO4)cc1	28.3	7.01	9.58	41.5					
C[C@@H]1[C@H](O)C[C@H]2[C@@H](C)[C@H](OC(=O)/C=C/c3ccc(Br)cc3)O[C@@H]3O[C@@]4(C)CC[C@@H]1[C@]32OO4	> 100	> 100	> 100	84.5					
C[C@@H]1[C@H](OC(=O)/C=C/c2ccccc2)C[C@H]2[C@@H](C)[C@H](OC(=O)/C=C/c3ccccc3)O[C@@H]3O[C@@]4(C)CC[C@@H]1[C@]32OO4	12.8	4.42	36	18	1	Stable			
C[C@@H]1[C@H](OC(=O)CCc2ccccc2)C[C@H]2[C@@H](C)[C@H](OC(=O)CCc3ccccc3)O[C@@H]3O[C@@]4(C)CC[C@@H]1[C@]32OO4	87.8	43.2	20.5	> 100					
C[C@@H]1[C@H](O)C[C@H]2[C@@H](C)[C@H](OC(=O)/C=C/c3cccc(Cl)c3)O[C@@H]3O[C@@]4(C)CC[C@@H]1[C@]32OO4	> 100	> 100	> 100	95.9					
C[C@@H]1[C@H](O)C[C@H]2[C@@H](C)[C@H](OC(=O)/C=C/c3ccccc3Cl)O[C@@H]3O[C@@]4(C)CC[C@@H]1[C@]32OO4	> 100	> 100	> 100	> 100					

SMILES	IC50 [1] [µM]	IC50 [2] [µM]	IC50 [3] [µM]	IC50 [4] [µM]	degraded [5] [%]	Stability [6]	IC50 [7] [µM]	Ratio IC50 [8]	Stability [5]
C[C@@H]1[C@H](O)C[C@H]2[C@@H](C)[C@H](OC(=O)CCc3ccccc3)O[C@@H]3O[C@@]4(C)CC[C@@H]1[C@]32OO4	> 100	> 100	> 100	> 100					
O=c1[nH]cc(F)c(=O)[nH]1 [FLUOROURACIL]	11.9		42.5	15.2			25.9	3.83	
Cc1ccc(/C=C/C(=O)O[C@@H]2O[C@@H]3O[C@@]4(C)CC[C@H]5[C@H](C)[C@H](O)C[C@@H]([C@H]2C)[C@@]35OO4)cc1	> 100	> 100	> 100	> 100					
Cc1ccc(/C=C/C(=O)O[C@@H]2O[C@@H]3O[C@@]4(C)CC[C@H]5[C@H](C)[C@H](OC(=O)/C=C/c6ccc(C)cc6)C[C@@H]([C@H]2C)[C@@]35OO4)cc1	> 100	> 100	87.2	> 100					
C[C@@H]1[C@H](OC(=O)/C=C/c2c(Cl)cccc2Cl)C[C@H]2[C@@H](C)[C@H](OC(=O)/C=C/c3c(Cl)cccc3Cl)O[C@@H]3O[C@@]4(C)CC[C@@H]1[C@]32OO4	60.8	> 100	> 100	> 100					
C[C@@H]1[C@H](OC(=O)/C=C/c2ccc([N+](=O)[O-])cc2)C[C@H]2[C@@H](C)[C@H](OC(=O)/C=C/c3ccc([N+](=O)[O-])cc3)O[C@@H]3O[C@@]4(C)CC[C@@H]1[C@]32OO4	18.8	> 100	10.7	> 100					
C[C@@H]1[C@H](OC(=O)/C=C/c2ccc(Cl)cc2)C[C@H]2[C@@H](C)[C@H](OC(=O)/C=C/c3ccc(Cl)cc3)O[C@@H]3O[C@@]4(C)CC[C@@H]1[C@]32OO4	21.3	1.5	6.76	58.3	1	Stable			
COc1cccc(/C=C/C(=O)O[C@@H]2O[C@@H]3O[C@@]4(C)CC[C@H]5[C@H](C)[C@H](OC(=O)/C=C/c6cccc(OC)c6)C[C@@H]([C@H]2C)[C@@]35OO4)c1	16.2	0.8	43.9	18.2	1	Stable			
COc1ccccc1/C=C/C(=O)O[C@@H]1O[C@@H]2O[C@@]3(C)CC[C@H]4[C@H](C)[C@H](O)C[C@@H]([C@H]1C)[C@@]24OO3	> 100	> 100	74.9	74.1					
COc1ccccc1/C=C/C(=O)O[C@@H]1O[C@@H]2O[C@@]3(C)CC[C@H]4[C@H](C)[C@H](OC(=O)/C=C/c5ccccc5OC)C[C@@H]([C@H]1C)[C@@]24OO3	46.4	2.55	11.5	52.3					
COc1ccc(/C=C/C(=O)O[C@@H]2O[C@@H]3O[C@@]4(C)CC[C@H]5[C@H](C)[C@H](OC(=O)/C=C/c6ccc(OC)c(OC)c6OC)C[C@@H]([C@H]2C)[C@@]35OO4)c(OC)c1OC	19.6	1.66	2.95	16.6			57.9	34.88	
COc1ccc(/C=C/C(=O)O[C@@H]2O[C@@H]3O[C@@]4(C)CC[C@H]5[C@H](C)[C@H](O)C[C@@H]([C@H]2C)[C@@]35OO4)cc1	> 100	> 100	> 100	87.1					
C[C@@H]1[C@H](OC(=O)/C=C/c2ccc(Br)cc2)C[C@H]2[C@@H](C)[C@H](OC(=O)/C=C/c3ccc(Br)cc3)O[C@@H]3O[C@@]4(C)CC[C@@H]1[C@]32OO4	35.8	35.3	19.7	> 100					
C[C@@H]1[C@H](O)C[C@H]2[C@@H](C)[C@H](OC(=O)/C=C/c3ccccc3F)O[C@@H]3O[C@@]4(C)CC[C@@H]1[C@]32OO4	> 100	92.7	89.6	47.1					
C[C@H]1[C@@H](O)O[C@@H]2O[C@@]3(C)CC[C@H]4[C@H](C)CC[C@@H]1[C@@]24OO3 [ARTENIMOL]	> 100	80.4	> 100	21.9			146	1.81	Unstable
C[C@@H]1[C@H](O)C[C@H]2[C@@H](C)[C@H](OC(=O)/C=C/c3ccc([N+](=O)[O-])cc3)O[C@@H]3O[C@@]4(C)CC[C@@H]1[C@]32OO4	> 100	> 100	> 100	> 100					
COc1ccc(/C=C/C(=O)O[C@@H]2O[C@@H]3O[C@@]4(C)CC[C@H]5[C@H](C)[C@H](O)C[C@@H]([C@H]2C)[C@@]35OO4)cc1OC	> 100	28.9	> 100	61					
